Laboratory results reported in the NIST ThermoML archive (doi:10.1016/j.fluid.2018.05.018).
± gives the expanded uncertainty stated by the source.

Conditions: Crystal; visual observation

Normal melting temperature: 134 ± 4 °C
Compound: CCOC(=O)N1CCC(=C2c3ccc(Cl)cc3CCc3cccnc32)CC1 [claritine]
